Measured values taken from patent US9376499B2, “PAR-1 activation by metalloproteinase-1 (MMP-1)” (Tufts Medical Center, Inc., priority 2009, dated 2016).

Experiments:
platelets [1] = assay: Platelet thrombus formation on collagen surface under arterial flow, heparin-anticoagulated whole blood; type: cell-based, human; settings: heparin 10 U/mL; shear rate 1,000 s-1; FN-439 3 μM, RWJ-56110 1 μM, pepducins 3 μM, aspirin 1 mM
Protocol: Following incubation with inhibitors, the blood was perfused over a glass slide coated with fibrillar collagen type I.
A flow chamber (Glycotech) with Type-I fibrillar collagen-coated glass slides was mounted on the stage of an IMT-2 inverted microscope (Olympus) equipped with Retiga 1300 digital camera (QImaging) and 40× objective. One of the flow chamber inlets was connected to a syringe pump (Harvard Apparatus) calibrated to create a shear rate of 1,000^s-1. The whole blood pretreated with the various pharmacologic inhibitors was then perfused over the collagen-coated glass slide. After 2-15 min of perfusion, blood was removed from the flow chamber by gentle displacement with PIPES buffer and images of 8-10 fields were acquired using OpenLab software (Improvision). Acquired images were further analyzed using NIH Image 1.63 software. Images were first sharpened and the edges of separate platelets and platelet aggregates were determined. Following the adjustment of threshold, images were converted into the binary format, and the particle analysis function was activated to highlight the regions covered by platelets with the sensitivity set to one single adherent thrombocyte. For the conversion of pixels into square micrometers, a calibration curve was built using 2.5, 6, 20, 25, and 45 μm polystyrene beads (Polyscience) using acquisition conditions identical to the experimental. The mean area of formed thrombus was determined at 7 min. Area measurements in FIG. 6B represent the mean±s.e. of three separate experiments from five different blood donors.

PAR1 [2] = molecular target: T1, PAR1 (Homo sapiens, UniProt P25116); assay: PAR1-dependent RhoA activation (Rho-GTP) in platelets by tethered-ligand peptides; type: cell-based; settings: 1 μM RWJ-56110
T1 construct: able to cleave PAR1 on the surface of human platelets; endogenous in cells; host or cells: gel-filtered or washed human platelets
T1 sequence (P25116 22-425): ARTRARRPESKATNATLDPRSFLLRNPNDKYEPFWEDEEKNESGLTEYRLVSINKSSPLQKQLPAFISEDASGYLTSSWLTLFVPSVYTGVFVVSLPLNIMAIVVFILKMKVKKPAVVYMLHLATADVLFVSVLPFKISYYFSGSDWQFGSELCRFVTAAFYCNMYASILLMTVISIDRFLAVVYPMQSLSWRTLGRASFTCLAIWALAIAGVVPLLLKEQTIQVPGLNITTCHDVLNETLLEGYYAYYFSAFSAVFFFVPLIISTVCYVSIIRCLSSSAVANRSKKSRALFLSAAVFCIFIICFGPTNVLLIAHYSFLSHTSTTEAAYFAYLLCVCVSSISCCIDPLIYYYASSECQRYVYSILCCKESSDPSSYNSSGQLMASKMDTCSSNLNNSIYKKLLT
Protocol: Gel-filtered human platelets, supplemented with 0.3 mg/mL fibrinogen, were treated with 0.2% DMSO vehicle, or 30 μM SFLLRN (TRAP), PR-TRAP or reversed peptide (RP-TRAP), for 5 min at 37° C. in presence or absence of 1 μM RWJ-56110 as indicated. Platelets were lysed and Rho-GTP and total Rho was determined by Western analysis as described in the Experimental Procedures. Western bands were quantified by densitometry and results expressed relative to fold-increase from basal.

platelets [3] = assay: Collagen-dependent aggregation of gel-filtered human platelets (light transmittance); type: cell-based; settings: 5 μg/ml collagen; 1,10-PA 100 μM, MMP-200 200 nM, FN-439 3 μM, RWJ-56110 1 μM, PAR1 Ab 75 μg/ml, pepducins 3 μM, PPACK 200 μM, hirudin 1 U/ml
Protocol: Platelet pellets and their supernatants were prepared as follows. […] following established informed consent procedures. […] Alternatively, whole blood was obtained from Hartley Sprague guinea pigs (drawn from the vena cava) into 3% citrate plus 10 U/ml heparin. Washed platelets from the guinea pigs were prepared in PIPES buffer. Platelet aggregation was measured with a Chronolog 560VS/490-2D aggregometer using modified PIPES buffer as a blank. Samples were incubated for 5 min in the presence of inhibitors and 1.8 mM CaCl2 prior to addition of agonist. All reactions were in final volumes of 250 μl at 37° C. while stirring at 900 rpm.
The effect of pharmacologic blockage of metalloproteases or PAR1 on collagen-dependent platelet aggregation was then tested (see FIG. 5). Gel-filtered platelets from healthy individuals (supplemented with 0.3 mg/ml fibrinogen) were challenged with 5 μg/ml collagen in the presence or absence (0.2% DMSO vehicle) of the indicated inhibitors and allowed to stir at 900 rpm in an aggregometer cuvette (250 μL) at 37° C.
In FIG. 5A, platelet aggregation was monitored by light transmittance.

PAR1 [4] = molecular target: T1, PAR1; assay: MMP-1-induced PAR1-dependent calcium flux in platelets; type: cell-based; settings: RWJ-56110
Protocol: In FIG. 4C, the induction of PAR1-dependent calcium fluxes by MMP-1 was measured. Calcium flux measurements of gel filtered platelets following challenge with MMP-1 in the presence or absence of RWJ-56110 were performed at 25° C. with emission recorded at 510 nm and dual excitation at 340 and 380 nm as described (Kuliopulos. 1999).

MAPKAP-K2 = assay: Collagen activation of phospho-MAPKAP-K2 in platelets (data not shown); type: cell-based, human
[5] = Carotid artery FeCl3 injury arterial thrombosis model; type: in vivo, guinea pig; settings: RWJ-56110 0.5 mg/kg; P1pal-7 0.13 mg/kg i.v.
Source text: To assess the efficacy on arterial thrombosis by blockade of thrombin, MMP-1, or PAR1, a standard carotid artery FeCl3 injury model was used in guinea pigs. FeCl3 causes denudation of the artery and exposure of type I collagen and other subendothelial matrix proteins. The effects of blocking thrombin with bivalirudin, MMP-1 with FN-439, and PAR1 with either the small molecule antagonist RWJ-56110 or the P1pal-7 pepducin on arterial thrombosis were then compared using a dopier probe.
For these arterial thrombosis experiments, 10 min after i.v. administration of vehicle (−), bivalirudin, RWJ-56110, P1 pal-7 or FN-439 (n=4-5) through the jugular vein at the indicated concentrations, the right carotid arteries were injured for 20 min using a 24 mm^2 piece of Bio-Rad Trans-Blot paper soaked in 20% FeCl3. Arterial flow 5 mm distal to the site of injury was measured with a 0.5 V Doppler probe (Transonic Systems). An arterial occlusion was defined as a flow rate of <0.01 V for ≧5 min. Doppler measurements were terminated at the 30 min time point following injury (* designates p<0.05).

platelets [6] = assay: Clot retraction assay in human platelet-rich plasma, collagen initiated; type: cell-based; settings: 2.5-5 μg/ml collagen (titration 1-20 μg/ml); FN-439 5 μM, RWJ-56110 1 μM, MMP9/13 Inh 10 nM; 90 or 240 min
Protocol: Platelet rich plasma (PRP) was isolated from human whole blood anti-coagulated with 4% sodium citrate. Clot retraction assays were done in 1 ml volumes containing 800 μl PBS and 200 μl PRP plus 10 μl red blood cells to enhance contrast. Samples were pretreated with FN-439 (5 μM), MMP9/13 Inh (10 nM) or RWJ-56110 (1 μM) for 15 min and clot formation was initiated with 1-20 μg/ml type I fibrillar collagen. Samples were incubated at 37° C. for 90 or 240 min and then photographed with a digital camera. Each photograph in FIG. 6I is representative of three independent experiments.

PAR1 [7] = molecular target: T1, PAR1; assay: MMP-1-induced platelet aggregation; type: cell-based; settings: 1 μM RWJ-56110
Protocol: In FIG. 4D, the induction of platelet aggregation by MMP-1 was determined. Gel-filtered platelets were challenged with MMP-1 in the presence or absence (0.2% DMSO vehicle) of the PAR1 inhibitor 1 μM RWJ-56110.

PAR1 [8] = molecular target: T1, PAR1; assay: Platelet shape change (decrease in light transmittance); type: cell-based; settings: 1 μM RWJ-56110
Protocol: In FIG. 3C, the ability of the […] peptide (PR-TRAP) to induce a change in platelet shape was determined. Washed human platelets were pretreated with 2 mM EGTA and then treated with the indicated agonists in the presence or absence of 1 μM RWJ-56110 while stirring at 1100 rpm. The decrease in light transmittance is an indication of the platelet shape change reaction.
In FIG. 4B, the ability of MMP-1 to induce platelet shape change was determined. Washed human platelets were pretreated with 2 mM EGTA and then challenged with MMP-1 in the presence or absence of 1 μM RWJ-56110 while stirring at 1100 rpm. Shape change was measured as described above.

platelets [9] = assay: Platelet thrombus formation on collagen surface under arterial flow, CTI-anticoagulated whole blood; type: cell-based, human; settings: CTI 30 μg/mL, hirudin 0.0013 U/mL, aspirin 1 mM
Protocol: Collagen-activated platelets also provide a pro-coagulant surface and produce tissue factor, which aids in the production of thrombin (Giesen at al., 1999; Mackman, 2004; Schwertz et al., 2006).
Whole blood was anti-coagulated with CTI (30 μg/mL) to block the contact pathway, otherwise the experiments were conducted identically as in FIG. 6A. Hirudin was used as indicated at 0.0013 UImL.

Rho-GTP = assay: Collagen-induced Rho-GTP activity in platelets (western blot); type: cell-based, human; settings: 5 or 20 μg/ml collagen or 10 nM MMP-1; ARC 0.5 μM, aspirin 1 mM
Protocol: In FIG. 5C, platelets were treated as in FIG. 5B and then Rho GTP activity was assessed by western blot.
Representative blots are shown at the bottom of FIGS. 5B-D. Data are the mean±s.d. of three experiments. P*<0.01, #<0.05.

p38 MAPK = assay: Collagen-induced phospho-p38 MAPK in platelets (western blot); type: cell-based, human; settings: 5 or 20 μg/ml collagen or 10 nM MMP-1; ARC 0.5 μM, aspirin 1 mM
Protocol: The effect of pharmacologic blockage of metalloproteases or PAR1 on collagen-dependent platelet aggregation was then tested (see FIG. 5). […] Platelets were pre-incubated for 5 min with the thrombin inhibitors PPACK (200 μM) or hirudin (1 U/ml), the Zn-chelator 1,10-phenanthroline (1,10-PA; 100 μM), the broad spectrum metalloprotease inhibitor MMP-200 (200 nM), the MMP-1 inhibitor FN-439 (3 μM), the PAR1 ligand binding site inhibitor RWJ-56110 (1 μM), the PAR1 blocking antibody (75 μg/ml), the PAR1 pepducin lipopeptides P1pal-12 (3 μM) or P1pal-7 (3 μM), the PAR4 pepducin lipopeptide P4pal-10 (3 μM), MMP-8 inhibitor (25 nM) or MMP9/13 inhibitor (10 nM).
In FIG. 5B, platelets were treated as in FIG. 5A and then lysed with Laemmli sample buffer 5 min after addition of collagen, p38 MAPK activity was then assessed by western blot with a p38 MAPK phospho-Ab and total p38 loading was determined using a p38 MAPK antibody.

PAR1 [10] = assay: Release of PAR1 N-terminal cleavage peptide from gel-filtered platelets (dot blot, IIaR-A antibody); type: cell-based, human
Source text: To further understand how collagen is able to activate significant amounts of endogenous MMP-1 collagenase activity on the surface of platelets, experiments were devised to determine if PAR-1 is cleaved in either an autocrine or paracrine manner following exposure to collagen. Using a monoclonal antibody raised against the amino-terminal thrombin-cleavage peptide region of PAR1, residues 32-46 (Loew et al., 2000), the relative abilities of thrombin, MMP-1 and collagen to cause cleavage of platelet PAR1 was assessed. Gel filtered platelets were treated for 10 min with thrombin (3 nM), MMP-1 (3 nM), collagen (5 μg/ml), in the presence or absence (PBS buffer) of 0.00013 U hirudin or 5 μM FN-439 at 37° C. Supernatants were concentrated 20-fold and applied to nitrocellulose membranes, then probed with the IIaR-A monoclonal antibody. The PAR1 N-terminal thrombin deavage peptide (A26-R41) and PAR1 flexible linker peptide (N-acetyl-T67-L84 -C) (Kuliopulos et al., 1999) served as positive and negative controls (100 ng), respectively.
These platelets were then stimulated with collagen (5 μg/ml) for 10 min. at 37° C. Supernatants were concentrated 20-fold and applied to nitrocellulose membranes, then probed with the IIaR-A monoclonal antibody. […] FN-439, or an MMP1-blocking antibody (20 μg/ml) but not by thrombin inhibitor, hirudin (see FIG. 1E, FIG. 1G).

Compound	attenuation of growth rate and size of platelet aggregate strings (platelets [1])	block of signaling induced by PR-TRAP (PAR1 [2])	inhibition (loss) of collagen-induced platelet aggregation (platelets [3])	inhibition of MMP-1-elicited calcium mobilization (PAR1 [4])	block of collagen-activation of phospho-MAPKAP-K2 (MAPKAP-K2)	effect on mean occlusion time [5]	inhibition of clot formation and retraction (platelets [6])	inhibition of MMP-1-elicited platelet aggregation (PAR1 [7])	block of PR-TRAP-induced platelet shape change (PAR1 [8])	inhibition of MMP-1-elicited platelet shape change (PAR1 [8])	effect on size of platelet micro-thrombi on collagen surfaces (platelets [9])	effect on activation of Rho-GTP (Rho-GTP)	effect on activation of phospho-p38 MAPK (p38 MAPK)	block of collagen-induced release of PAR1 N-terminal peptide (PAR1 [10]; 5 μg/ml collagen, 10 min, 37° C., Ab 20 μg/ml, ARC 0.5 μM, ASA 1 mM)	block of thrombin-induced release of N-terminal cleavage peptide of PAR1 (PAR1 [10]; 3 nM thrombin, 0.00013 U hirudin)
NCC[C@H](NC(=O)[C@H](Cc1ccc(F)c(F)c1)NC(=O)Nc1ccc2c(CN3CCCC3)cn(Cc3c(Cl)cccc3Cl)c2c1)C(=O)NCc1ccccc1 [RWJ-56110]	~75%	completely blocked	50%	inhibited	blocked	did not appreciably affect	nearly identical pattern of inhibition	inhibited	completely blocked	inhibited					
CC(=O)Oc1ccccc1C(=O)O [aspirin]	little or no effect										did not affect	no effect	no effect	no effect	
hirudin			no effect								no effect				blocked
